Laboratory results as given in paper PMC5590075, “Synthesis, Antimicrobial, and Antioxidant Activities of Chalcogen-Containing Nitrone Derivatives from (R)-citronellal” (Medicines, 2017).

How the values were obtained:
DPPH radical scavenging = details: 10–500 μM tested
Experimental: The antioxidant properties of the synthesized compounds (5a–d and 10) were evaluated by three different methods in vitro: DPPH (1,1-diphenyl-2-picryl-hydrazyl) and ABTS^+ (2,2′-azino-bis(3-ethylbenzthiazoline-6-sulfonic acid) radical scavenging ability and ferric ion reducing antioxidant power (FRAP). All drugs were dissolved in dimethyl sulfoxide (DMSO) at concentrations of 1–500 µM. These assays were performed according to the literature and details of these experiments are described elsewhere (see the ‘Results and Discussion’ section for the references). […]
2.3. Antioxidant activity assays
The antioxidant properties of the synthesized compounds were evaluated by three different methods in vitro: DPPH and ABTS+ radical scavenging activity and ferric ion reducing antioxidant power (FRAP). All drugs were dissolved in dimethyl sulfoxide (DMSO). The experimental results were given as the means ± standard deviation (SD) to show the variations among the groups. The statistical analysis was performed using one‐way analysis of variance (ANOVA) followed by Newman‐Keuls multiple comparison test when appropriate. The differences were considered statistically significant at a probability of less than 5% (p < 0.05). All tests were performed at least three times in duplicate. The IC50 values (the concentration of sample required to scavenge 50% of the free radicals) were calculated from the graph of the scavenging effect percentage versus the […]
2.4. Radical Scavenging Activity
To determine if compounds 5a–d and 10 present in vitro antioxidant activity against free radicals, DPPH and ABTS+ scavenging capability were evaluated at different concentrations.
The DPPH scavenging activity of compounds 5a–d and 10 (10–500 μM) was determined in accordance with the method of Sharma and Bhat and the decrease in the absorbance at 517 nm […]
The ABTS radical scavenging activity was determined according to the method described by Erel. Different concentrations of compounds 5a–d and 10 (10–500 μ M) were mixed with the ABTS+ solution, and the decrease in the absorbance at 734 nm was recorded. […]
(§1) values, as calculated by the following equation:
I% = [(Ac−As/Ac) × 100] (1) […]

[1] = Ferric ion reducing antioxidant power (FRAP); details: mean ± SD (n = 3)
Experimental: The antioxidant properties of the synthesized compounds (5a–d and 10) were evaluated by three different methods in vitro: DPPH (1,1-diphenyl-2-picryl-hydrazyl) and ABTS^+ (2,2′-azino-bis(3-ethylbenzthiazoline-6-sulfonic acid) radical scavenging ability and ferric ion reducing antioxidant power (FRAP). All drugs were dissolved in dimethyl sulfoxide (DMSO) at concentrations of 1–500 µM. These assays were performed according to the literature and details of these experiments are described elsewhere (see the ‘Results and Discussion’ section for the references).
as §1
I% = [(Ac−As/Ac) × 100] (1)
3. Ferric ion reducing antioxidant power (FRAP)
reducing capacity of compounds 5a–d and 10.
[8] with slight modifications. […]

δ-ALA-D = biological target: T1, δ-ALA-D (Mus musculus, UniProt P10518); experiment: δ-ALA-D activity in tissue supernatants (in vitro toxicity); details: mean ± SD (n = 3)
T1 sequence (P10518 1-330): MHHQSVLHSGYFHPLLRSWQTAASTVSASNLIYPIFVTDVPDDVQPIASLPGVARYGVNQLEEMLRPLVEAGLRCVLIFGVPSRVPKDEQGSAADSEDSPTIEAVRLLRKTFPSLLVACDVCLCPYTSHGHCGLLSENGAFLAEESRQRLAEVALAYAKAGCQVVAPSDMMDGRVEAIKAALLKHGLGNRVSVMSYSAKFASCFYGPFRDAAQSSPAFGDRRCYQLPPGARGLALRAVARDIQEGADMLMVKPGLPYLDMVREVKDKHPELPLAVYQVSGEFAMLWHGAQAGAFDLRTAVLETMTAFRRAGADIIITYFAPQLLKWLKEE

[2] = test system: Listeria monocytogenes ATCC 7644; experiment: MIC and MBC, macro dilution tube method; format: cell-based; details: L. monocytogenes
Excerpt: (§2) To evaluate the antimicrobial potential of the synthesized compounds, the following reference strains of bacteria, that are economically important in foods, were employed: Gram-positive Listeria monocytogenes ATCC 7644, Staphylococcus aureus ATCC 25923, and Bacillus cereus ATCC 11778; Gram-negative Salmonella Typhimurium ATCC 14028, Escherichia coli O157: H7 NCTC 12900 and the clinically important Pseudomonas aeruginosa ATCC 15442.
(§3) The antimicrobial activity assay using the disk diffusion test was realized using the methodology that is recommended by the Clinical Laboratory Standards Institute (CLSI). The determination of the minimum inhibitory concentration (MIC) and minimum bactericidal concentration (MBC) was performed using the macro dilution tube method, in accordance with Rota et al., with modifications. Details of these assays are provided in the Supplemental Material. […]
(§4) 2.2. Determination of the minimum inhibitory concentration (MIC) and minimum bactericidal concentration
(§5) The MIC was determined using the macro dilution tube method, in accordance with Rota et al.
(§6) [5], with modifications. The tested concentrations were 20, 18, 15, 12, 10, 7 and 5 μL.mL‐1 of each compound. In a tube with 1 mL of MH broth, was inoculated 105 UFC.mL‐1, the compound in a predetermined concentration and, to facilitate the solubility, 2 drops of TWEEN 80. The mixture was incubated at 37 °C for 24 h under stirring (150 rpm). As the positive control, MH broth and inoculum concentration in 105 UFC.mL‐1 and as the negative control MH, the inoculum concentration in 105 UFC∙mL‐1 and streptomycin (10 μg) were used. MIC was defined as the lowest concentration of […]
(§7) After 24 h, tubes with no visible growth were seeded in a […] TSA‐YE tube and incubated at 37 °C for 24 h. The MBC is the lowest concentration of compound where 99.9% of the initially inoculated cells were killed. […]
(§8) 2.4. Radical Scavenging Activity […]
(§9) The ABTS radical scavenging activity was determined according to the method described by Erel. Different concentrations of compounds 5a–d and 10 (10–500 μ M) were mixed with the ABTS+ solution, and the decrease in the absorbance at 734 nm was recorded.

[3] = test system: Escherichia coli O157: H7 NCTC 12900; experiment: MIC and MBC, macro dilution tube method; format: cell-based
Excerpt: as §2, §3, §4, §5, §6, §7, §8, §9

[4] = test system: Staphylococcus aureus ATCC 25923; experiment: MIC and MBC, macro dilution tube method; format: cell-based; details: S. mureus (so in the source)
Excerpt: as §2, §3, §4, §5, §6, §7, §8, §9

SMILES: CC(C)=CCC[C@@H](C)C(/C=N/O)[Se]c1ccccc1 (stereo partly drawn) [compound 10, (3R,E)-3,7-dimethyl-2-(phenylselanyl)oct-6-enal oxime]
- DPPH radical scavenging activity (in words) (DPPH radical scavenging): did not present effect
- Ferric ion reducing antioxidant power (FRAP), absorbance at 593 nm ([1]; 10 μM): 0.084 ± 0.010
- Ferric ion reducing antioxidant power (FRAP), absorbance at 593 nm ([1]; 50 μM): 0.180 ± 0.008
- Ferric ion reducing antioxidant power (FRAP), absorbance at 593 nm ([1]; 100 μM): 0.257 ± 0.007
- Ferric ion reducing antioxidant power (FRAP), absorbance at 593 nm ([1]; 500 μM): 1.291 ± 0.045
- δ-ALA-D activity (δ-ALA-D; Brain, 10 μM): 0.30 ± 0.10 nmol PBG.mg.tn‐1.h‐1
- δ-ALA-D activity (δ-ALA-D; Brain, 50 μM): 0.28 ± 0.09 nmol PBG.mg.tn‐1.h‐1
- δ-ALA-D activity (δ-ALA-D; Brain, 100 μM): 0.26 ± 0.08 nmol PBG.mg.tn‐1.h‐1
- δ-ALA-D activity (δ-ALA-D; Brain, 500 μM): 0.26 ± 0.07 nmol PBG.mg.tn‐1.h‐1
- δ-ALA-D activity (δ-ALA-D; Kidney, 10 μM): 0.96 ± 0.12 nmol PBG.mg.tn‐1.h‐1
- δ-ALA-D activity (δ-ALA-D; Kidney, 50 μM): 0.95 ± 0.10 nmol PBG.mg.tn‐1.h‐1
- δ-ALA-D activity (δ-ALA-D; Kidney, 100 μM): 0.84 ± 0.10 nmol PBG.mg.tn‐1.h‐1
- δ-ALA-D activity (δ-ALA-D; Kidney, 500 μM): 0.61 ± 0.12 nmol PBG.mg.tn‐1.h‐1
- δ-ALA-D activity (δ-ALA-D; Liver, 10 μM): 4.90 ± 0.58 nmol PBG.mg.tn‐1.h‐1
- δ-ALA-D activity (δ-ALA-D; Liver, 50 μM): 4.71 ± 0.53 nmol PBG.mg.tn‐1.h‐1
- δ-ALA-D activity (δ-ALA-D; Liver, 100 μM): 4.57 ± 0.62 nmol PBG.mg.tn‐1.h‐1
- δ-ALA-D activity (δ-ALA-D; Liver, 500 μM): 3.97 ± 0.82 nmol PBG.mg.tn‐1.h‐1
- MBC ([2]; 10^5 CFU.mL^−1): >0.70 mM.mL^−1
- MIC ([2]; 10^5 CFU.mL^−1, 24 h): >0.70 mM.mL^−1
- MBC ([3]; E. coli O157:H7, 10^5 CFU.mL^−1): >0.70 mM.mL^−1
- MIC ([3]; E. coli O157:H7, 10^5 CFU.mL^−1, 24 h): >0.70 mM.mL^−1
- MBC ([4]; 10^5 CFU.mL^−1): >0.70 mM.mL^−1
- MIC ([4]; 10^5 CFU.mL^−1, 24 h): >0.70 mM.mL^−1
